Measurements reported in paper PMC10713630, “Elucidation of the structural basis for ligand binding and translocation in conserved insect odorant receptor co-receptors” (Nature Communications, 2023).
“And” between values parts separate entries of the source, which are not always exact repeats. Identical values can stand only once. “Also recorded” adds a separate entry of the source.

Legend:
DmelOrco I181S = DmelOrco I181S (Drosophila melanogaster, UniProt Q9VNB5, I181S); experiment: TEVC recording of VUAA1-induced current, DmelOrco I181S in Xenopus oocytes; format: cell-based; conditions: concentration-effect curve of VUAA1, TEVC, I181S
Sequence of DmelOrco I181S (Q9VNB5 whole entry I181S, the tested form may be a part): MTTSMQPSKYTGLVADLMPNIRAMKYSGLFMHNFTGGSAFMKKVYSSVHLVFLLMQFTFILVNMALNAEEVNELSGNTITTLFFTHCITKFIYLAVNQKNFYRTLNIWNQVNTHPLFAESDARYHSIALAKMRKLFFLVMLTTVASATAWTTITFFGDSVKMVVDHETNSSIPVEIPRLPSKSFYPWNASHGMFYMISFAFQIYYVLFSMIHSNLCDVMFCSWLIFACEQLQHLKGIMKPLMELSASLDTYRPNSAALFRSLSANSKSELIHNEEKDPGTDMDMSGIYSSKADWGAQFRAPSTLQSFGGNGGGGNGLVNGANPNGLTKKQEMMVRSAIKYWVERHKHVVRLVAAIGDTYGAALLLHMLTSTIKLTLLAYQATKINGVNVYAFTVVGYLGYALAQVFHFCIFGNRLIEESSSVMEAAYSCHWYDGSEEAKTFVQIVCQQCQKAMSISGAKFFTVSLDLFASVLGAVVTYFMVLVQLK
From the text: (§1) All Orco gene sequences were optimized[63] for protein expression in Xenopus laevis oocytes with the GenSmartTM Codon optimization Tool and subcloned into a pGEMHE-derived vector. The wildtype gene of Drosophila melanogaster Orco (DmelOrco) was synthesized by Genscript and subcloned with XmaI/XhoI cloning sites. Site-directed mutagenesis of DmelOrco was done by PCR with the Q5® site directed mutagenesis kit (NEB) using primers optimized with the NEBase Changer online tool and following the supplier’s protocol. After transformation of commercial competent bacteria (XL10 Gold) by standard heat-shock protocol and overnight culture in ampicillin-containing LB plates, positive clones were identified by electrophoretic restriction profile and external sequencing (Genewiz). DNAs of positive clones were amplified with Qiagen MidiPrep Kit and the ORF was fully sequenced. For in vitro transcription, DNAs were linearized with restriction enzyme NotI that cuts a unique site in the 3′ region of the polyA tail. The linearized DNAs were purified by the standard phenol:chloroform extraction method and transcribed into mRNA using the T7 ultra mMessage mMachine kit (Thermo Fisher Scientific). mRNAs were purified with the NucleoSpin RNA plus XS kit (Machery-Nagel). DNA and RNA were analyzed by agarose-gel electrophoresis and quantified by spectrophotometry.
(§2) Xenopus laevis oocytes were prepared, as previously described. Briefly, oocytes were defolliculated after surgical retrieval by type 1 A collagenase over 2-3 h under smooth horizontal agitation. They were manually selected and incubated at 19 °C in modified-Barth’s solution (1 mM KCl, 0.82 mM MgSO4, 88 mM NaCl, 2.4 mM NaHCO3, 0.41 mM CaCl2, Ca(NO3)2 0.3 mM, 16 mM HEPES, pH 7.4) supplemented with 100 U mL^−1 of penicillin and streptomycin and 0.1 mg mL^−1 of gentamycin. Each oocyte was micro-injected with the Nanoject instrument (Drummond) with 50 nL of 20 ng of mRNA coding for the Orco of interest. Injected oocytes were incubated individually in 96-well plates for 4 days at 19 °C in the same buffer. Different batches of oocytes have been tested per construct. The results of the mutants of interest have been confirmed by a second set of experiments comparing the amplitudes with WT in the same day and from the same batch of oocytes (Supplementary Fig. 11).
(§3) Whole cell currents were recorded with the two-electrode voltage-clamp (TEVC) technique with the HiClamp robot (MultiChannel System). Microelectrodes were filled with 3 M KCl. The high K^+ buffer used for recordings was composed of 91 mM KCl, 1 mM MgCl2, 1.8 mM CaCl2, 5 mM HEPES, pH 7.4. Membrane voltage was clamped to −50 mV and VUAA1 was applied for 60 s. Data were extracted with M. Vivaudou’s programs[65] and statistically analyzed with Prism 8 (Graphpad).

DmelOrco I181W = DmelOrco I181W (Drosophila melanogaster, UniProt Q9VNB5, I181W); experiment: TEVC recording of VUAA1-induced current, DmelOrco I181W in Xenopus oocytes; format: cell-based; design: VUAA1-induced current, i181W: unit not given here
Sequence of DmelOrco I181W (Q9VNB5 whole entry I181W, the tested form may be a part): as the sequence (Q9VNB5 whole entry I181S, the tested form may be a part) above, with S181W counted along it
From the text: as §1, with “The linearized DNAs were purified by the standard phenol:chloroform extraction method and transcribed into mRNA using the T7 ultra mMessage mMachine kit (Thermo Fisher Scientific). mRNAs were purified with the NucleoSpin RNA plus XS kit (Machery-Nagel).” left out, “spectrophotometry. […]” for “spectrophotometry.”
(§4) Whole cell currents were recorded with the two-electrode voltage-clamp (TEVC) technique with the HiClamp robot (MultiChannel System). […] Data were extracted with M. Vivaudou’s programs[65] and statistically analyzed with Prism 8 (Graphpad).

DmelOrco V206W = DmelOrco V206W (Drosophila melanogaster, UniProt Q9VNB5, V206W); experiment: TEVC recording of VUAA1-induced current, DmelOrco V206W in Xenopus oocytes; format: cell-based; design: VUAA1-induced current, V206W: unit not given here; conditions: for VUAA1-induced current, V206W: individual oocytes
Sequence of DmelOrco V206W (Q9VNB5 whole entry V206W, the tested form may be a part): as the sequence (Q9VNB5 whole entry I181S, the tested form may be a part) above, with S181I, V206W counted along it
From the text: as §1, §2, §3

DmelOrco F83W = DmelOrco F83W (Drosophila melanogaster, UniProt Q9VNB5, F83W); experiment: TEVC recording of VUAA1-induced current, DmelOrco F83W in Xenopus oocytes; format: cell-based; conditions: 500 µM VUAA1, TEVC
Sequence of DmelOrco F83W (Q9VNB5 whole entry F83W, the tested form may be a part): as the sequence (Q9VNB5 whole entry I181S, the tested form may be a part) above, with F83W, S181I counted along it
From the text: as §1, with “The linearized DNAs were purified by the standard phenol:chloroform extraction method and transcribed into mRNA using the T7 ultra mMessage mMachine kit (Thermo Fisher Scientific). mRNAs were purified with the NucleoSpin RNA plus XS kit (Machery-Nagel).” left out, “spectrophotometry. […]” for “spectrophotometry.”
as §4

DmelOrco F84A = DmelOrco F84A (Drosophila melanogaster, UniProt Q9VNB5, F84A); experiment: TEVC recording of VUAA1-induced current, DmelOrco F84A in Xenopus oocytes; format: cell-based
Sequence of DmelOrco F84A (Q9VNB5 whole entry F84A, the tested form may be a part): as the sequence (Q9VNB5 whole entry I181S, the tested form may be a part) above, with F84A, S181I counted along it
From the text: as §1
(§5) Xenopus laevis oocytes were prepared, as previously described. Briefly, oocytes were defolliculated after surgical retrieval by type 1 A collagenase over 2-3 h under smooth horizontal agitation. They were manually selected and incubated at 19 °C in modified-Barth’s solution (1 mM KCl, 0.82 mM MgSO4, 88 mM NaCl, 2.4 mM NaHCO3, 0.41 mM CaCl2, Ca(NO3)2 0.3 mM, 16 mM HEPES, pH 7.4) supplemented with 100 U mL^−1 of penicillin and streptomycin and 0.1 mg mL^−1 of gentamycin. […]
as §4

DmelOrco F84S = DmelOrco F84S (Drosophila melanogaster, UniProt Q9VNB5, F84S); experiment: TEVC recording of VUAA1-induced current, DmelOrco F84S in Xenopus oocytes; format: cell-based; conditions: 500 µM VUAA1, TEVC
Sequence of DmelOrco F84S (Q9VNB5 whole entry F84S, the tested form may be a part): as the sequence (Q9VNB5 whole entry I181S, the tested form may be a part) above, with F84S, S181I counted along it
From the text: as §1, with “The linearized DNAs were purified by the standard phenol:chloroform extraction method and transcribed into mRNA using the T7 ultra mMessage mMachine kit (Thermo Fisher Scientific). mRNAs were purified with the NucleoSpin RNA plus XS kit (Machery-Nagel).” left out, “spectrophotometry. […]” for “spectrophotometry.”
as §4

DmelOrco S146A = DmelOrco S146A (Drosophila melanogaster, UniProt Q9VNB5, S146A); experiment: TEVC recording of VUAA1-induced current, DmelOrco S146A in Xenopus oocytes; format: cell-based
Sequence of DmelOrco S146A (Q9VNB5 whole entry S146A, the tested form may be a part): as the sequence (Q9VNB5 whole entry I181S, the tested form may be a part) above, with S146A, S181I counted along it
From the text: as §1, with “The linearized DNAs were purified by the standard phenol:chloroform extraction method and transcribed into mRNA using the T7 ultra mMessage mMachine kit (Thermo Fisher Scientific). mRNAs were purified with the NucleoSpin RNA plus XS kit (Machery-Nagel).” left out, “spectrophotometry. […]” for “spectrophotometry.”
as §4

DmelOrco S146V = DmelOrco S146V (Drosophila melanogaster, UniProt Q9VNB5, S146V); experiment: TEVC recording of VUAA1-induced current, DmelOrco S146V in Xenopus oocytes; format: cell-based
Sequence of DmelOrco S146V (Q9VNB5 whole entry S146V, the tested form may be a part): as the sequence (Q9VNB5 whole entry I181S, the tested form may be a part) above, with S146V, S181I counted along it
From the text: as §1, §5, §4

DmelOrco S146W = DmelOrco S146W (Drosophila melanogaster, UniProt Q9VNB5, S146W); experiment: TEVC recording of VUAA1-induced current, DmelOrco S146W in Xenopus oocytes; format: cell-based; conditions: 500 µM VUAA1, TEVC
Sequence of DmelOrco S146W (Q9VNB5 whole entry S146W, the tested form may be a part): as the sequence (Q9VNB5 whole entry I181S, the tested form may be a part) above, with S146W, S181I counted along it
From the text: as §1, with “The linearized DNAs were purified by the standard phenol:chloroform extraction method and transcribed into mRNA using the T7 ultra mMessage mMachine kit (Thermo Fisher Scientific). mRNAs were purified with the NucleoSpin RNA plus XS kit (Machery-Nagel).” left out, “spectrophotometry. […]” for “spectrophotometry.”
as §4

MdesOrco = conditions: cited from earlier work

CCc1ccc(NC(=O)CSc2nnc(-c3cccnc3)n2CC)cc1 [VUAA1, N-(4-ethylphenyl)−2-((4-ethyl-5-(3-pyridinyl)−4H-1,2,4-triazol-3-yl)thio)acetamide]
Imax (DmelOrco I181S): 0.94 µA
Response to VUAA1 compared with WT (DmelOrco I181W; 500 µM VUAA1, TEVC, I181W): significantly reduced or abolished the activation; also recorded: clear loss of VUAA1 activation
VUAA1-induced current, i181W (DmelOrco I181W; Fig.4b, individual oocytes): 0.52 and 0.99 and 0.9 and 0.42 and 0.27 and 1.33 and 0.95 and 0.29 and 0.18 and 1.75 and 2.06 and 1.1 and 0.66 and 0.22 and 0.14 and 0.54 and 0.08
Response to VUAA1 compared with WT (DmelOrco V206W; 500 µM VUAA1, TEVC, V206W): significantly reduced or abolished the activation; also recorded: significant decrease in the response
VUAA1-induced current, V206W (DmelOrco V206W; Fig.4b): 0.24 and 0.29 and 1.03 and 0.65 and 0.59 and 0.7 and 0.64 and 0.44 and 0.27
VUAA1-induced current, V206W (DmelOrco V206W; Fig.4i dose-response, VUAA1 10 µM (Log(M) -5)): 0.05 and 0.36 and 0.03 and 0.04 (2×) and 0.02 (2×) and 0.01
VUAA1-induced current, V206W (DmelOrco V206W; Fig.4i dose-response, VUAA1 25 µM (Log(M) -4.6)): 0.02 (2×) and 0.37 and 0.05 and 0.04 and 0.03 (3×)
VUAA1-induced current, V206W (DmelOrco V206W; Fig.4i dose-response, VUAA1 50 µM (Log(M) -4.3)): 0.01 and 0.48 and 0.1 and 0.04 (2×) and 0.05 (2×) and 0.03
VUAA1-induced current, V206W (DmelOrco V206W; Fig.4i dose-response, VUAA1 100 µM (Log(M) -4)): 0.01 and 0.59 and 0.18 and 0.05 and 0.19 and 0 and 0.22 and 0.1
VUAA1-induced current, V206W (DmelOrco V206W; Fig.4i dose-response, VUAA1 500 µM (Log(M) -3.3)): 0.07 (2×) and 0.56 and 0.2 and 0.4 and 0.09 and 0.5 and 0.18
VUAA1-induced current, V206W (DmelOrco V206W; Fig.4i dose-response, VUAA1 1000 µM (Log(M) -3)): 0.12 and 0.59 and 0.2 and 0.07 and 0.5 and 0.11 and 0.61 and 0.24
Imax (DmelOrco V206W; concentration-effect curve of VUAA1, TEVC, V206W): 0.33 µA
Response to VUAA1 compared with WT (DmelOrco F83W): decreased the response; also recorded: significant decrease in the response
EC50 (DmelOrco F84A): 105 µM
Current induced by VUAA1 (median) (DmelOrco F84A; 500 µM VUAA1, TEVC, F84A): 0.68 µA
Imax (DmelOrco F84A; concentration-effect curve of VUAA1, TEVC, F84A): 1.01 µA
Response to VUAA1 compared with WT (DmelOrco F84S): decreased the response
Current induced by VUAA1 (median) (DmelOrco S146A; 500 µM VUAA1, TEVC, S146A): 7.55 µA
Effect on VUAA1-induced channel response (DmelOrco S146A; DmelOrco S146A): I
EC50 (DmelOrco S146V): 82.2 µM
Current induced by VUAA1 (median) (DmelOrco S146V; 500 µM VUAA1, TEVC, S146V): 11.68 µA
Imax (DmelOrco S146V; concentration-effect curve of VUAA1, TEVC, S146V): 6.99 µA
Response to VUAA1 compared with WT (DmelOrco S146W): significant decrease in the response
Sensitivity of MdesOrco to VUAA1 (MdesOrco): VUAA1-insensitive
